PMC3001719, “The heme sensing response regulator HssR in Staphylococcus aureus but not the homologous RR23 in Listeria monocytogenes modulates susceptibility to the antimicrobial peptide plectasin” (BMC Microbiology, 2010)
“And” between values parts separate entries of the source, which are not always exact repeats. Equal entries are not always repeated.

Tests used:
[1] = tested on: L. monocytogenes; experiment: ATP leakage (intracellular and extracellular ATP, bioluminescence); type: cell-based, Listeria monocytogenes; conditions: L. monocytogenes, 500 μg/ml peptide, 50 mM HEPES pH 7.0 with 0.2% glucose, vs peptide dilution buffer
Method: L. monocytogenes and S. aureus were grown in TSB at 37°C. Bacteria were harvested (10 min at 3000 RPM) at mid-exponential phase (absorbance at 546 nm of 2.5 ± 0.2 and 1.0 ± 0.2 for S. aureus and L. monocytogenes, respectively), washed once in 50 mM potassium phosphate buffer pH 7.0 and once in 50 mM HEPES buffer pH 7.0. The pellet was resuspended in 50 mM HEPES pH 7.0 to a final absorbance at 546 nm of 10. Bacteria were stored on ice and used within 5 hours. […] ATP was determined using a bioluminescence kit (Sigma, FLAA-1KT) and a BioOrbit 1253 luminometer. Total ATP content was determined by rapidly permeabilising 20 μl cell suspension with 80 μl dimethyl sulfoxide. The cell suspension was diluted in 4.9 ml sterile water, and ATP content was determined in 100 μl of the preparation as described by the manufacturer. To determine the extracellular ATP concentration, the 20 μl cell suspension was mixed with 80 μl sterile water and analyzed as described above. Intracellular ATP concentrations were calculated by using the intracellular volumes of 0.85 and 1.7 μm^3 for S. aureus and L. monocytogenes, respectively. The number of cells in suspension was determined by plate spreading.

[2] = tested on: S. aureus 15981 wild type; experiment: Growth in TSB with plectasin; type: cell-based, Staphylococcus aureus; conditions: plectasin 35 μg/ml, 37°C, absorbance at 600 nm
Method: (§1) Overnight cultures of S. aureus were diluted to an absorbance at 600 nm of 0.05 in TSB with and without 4 μM hemin and/or 35 μg/ml plectasin and grown at 37°C. Measurements of the absorbance were made every 30 minutes.

[3] = tested on: S. aureus 15981 ΔTCS15 (hssRS) mutant; experiment: Growth in TSB with plectasin; type: cell-based, Staphylococcus aureus; conditions: plectasin 35 μg/ml, 37°C, absorbance at 600 nm
Method: as §1

[4] = tested on: S. aureus 8325-4 hssR::bursa transposon mutant; experiment: Growth in TSB with plectasin; type: cell-based, Staphylococcus aureus; conditions: plectasin 35 μg/ml, 37°C, absorbance at 600 nm
Method: as §1

[5] = tested on: S. aureus 8325-4 hssR::bursa/pRMC2-hssRS; experiment: Growth in TSB with plectasin; type: cell-based, Staphylococcus aureus; conditions: plectasin 35 μg/ml, 37°C, absorbance at 600 nm
Method: as §1

[6] = tested on: hrtB and hssR expression in wild type S. aureus; experiment: Expression of hrtB and hssR, northern blot and quantitative real-time PCR; type: cell-based, Staphylococcus aureus; conditions: plectasin 35 μg/ml, 10 and 90 minutes, northern blot and quantitative real-time PCR (P > 0.05)
Method: Wild type S. aureus and the hssR mutant were grown to an absorbance at 600 nm of 0.45 ± 0.1, samples were withdrawn for the isolation of RNA. Plectasin (35 μg/ml) was added to the growing culture, and after 10 and 90 minutes samples were also withdrawn. Cells were quickly cooled and lysed mechanically using the FastPrep machine (Bio101; Q-biogene), and RNA was isolated by the RNeasy kit (QIAGEN, Valencia, Calif.) according to the manufacturer's instructions. Northern Blotting: RNA was transferred to a nylon membrane (Boehringer Mannheim) by capillary blotting as previously described. Hybridization was performed using gene-specific probes that had been labelled with [^32P]dCTP using the Ready-to-Go DNA-labelling beads from Amersham Biosciences. Primers for probes amplifying hrtB and hssR: hrtB-1F:(5'[…]3'), hrtB-2R: (5'[…]3'), hssR-1F: (5'[…]3'), hssR-2R:(5' […]3'). All steps were repeated in two independent experiments giving similar results. Quantitative RT-PCR: RNA was treated with DNase and RevertAid™ H Minus first strand cDNA synthesis Kit (Fermentas). […] Statistical analysis on QRTPCR results using GraphPad prism5, 1Way Anova with Dunnett's Multiple comparison test (GraphPad Software, Inc) determined changes in expression comparing time 0 to time 10 minutes or 90 minutes.

[7] = tested on: S. aureus hssR mutants; experiment: MIC of hssR mutants compared to wild type; type: cell-based, Staphylococcus aureus; conditions: ratio of MIC, S. aureus hssR response regulator mutants vs wild type, regardless of the genetic background
Method: Minimal inhibitory concentrations (MIC) of plectasin, eurocin, protamine, novicidin, and novispirin G10 were determined using a microbroth dilution method. Colonies from a BHI plate incubated overnight at 37 °C were suspended in MHB pH 7.4 to an absorbance at 546 nm of 0.11-0.12 at 546 nm (approx. 1.0 × 10^8 CFU/ml) and diluted in MHB to a concentration of 5.0 × 10^5 CFU/ml. Ninety μl of bacterial suspension was incubated with 10 μl of peptide solution in polypropylene 96-well plates (Nunc, 442587) for 18-24 h at 37°C. The peptide solutions were made fresh on the day of assay. The range of concentrations assayed were 0.25-256 μg/ml for plectasin and eurocin, 0.125-128 μg/ml for protamine and novispirin G10, and 0.031-32 μg/ml for novicidin. MIC was the lowest peptide concentration at which visual growth was inhibited.

[8] = tested on: L. monocytogenes wild type; experiment: Spontaneous mutation control on plectasin plates; type: cell-based, Listeria monocytogenes; conditions: L. monocytogenes wild type grown on BHI with 4, 5 or 10 fold MIC of plectasin
Method: The transposon mutant libraries were screened on agar plates for increased resistance to plectasin as compared to wild-type sensitivity. Wild-type sensitivity was determined by plating approx. 1.0 × 10^7 CFU/ml on TSB agar containing plectasin (S. aureus) and approx. […] Plates were incubated at 37°C for 3 days and inspected for growth. […]

SMILES: CC[C@H](C)[C@@H]1NC(=O)[C@H](CO)NC(=O)[C@H](CCCCN)NC(=O)[C@@H]2CSSC[C@@H](C(=O)N[C@@H](Cc3ccc(O)cc3)C(=O)O)NC(=O)[C@H](CCCCN)NC(=O)[C@@H]3CSSC[C@H](NC(=O)[C@H](CCC(N)=O)NC(=O)[C@H](CCSC)NC(=O)[C@H](CC(=O)O)NC(=O)[C@H](CC(=O)O)NC(=O)[C@H](CCC(=O)O)NC(=O)[C@H](CC(=O)O)NC(=O)[C@H](Cc4c[nH]c5ccccc45)NC(=O)[C@@H]4CCCN4C(=O)CNC(=O)[C@H](CC(N)=O)NC(=O)[C@@H](NC(=O)CNC(=O)[C@H](Cc4ccccc4)NC(=O)CN)CSSC[C@H](NC(=O)[C@H](Cc4ccc(O)cc4)NC(=O)CNC(=O)CNC(=O)[C@H](CCCCN)NC(=O)[C@H](Cc4ccc(O)cc4)NC(=O)CNC(=O)[C@H](CCCCN)NC1=O)C(=O)N[C@@H](C)C(=O)N[C@@H](CCCCN)C(=O)NCC(=O)NCC(=O)N[C@@H](Cc1ccccc1)C(=O)N[C@@H](C(C)C)C(=O)N3)C(=O)N[C@@H](Cc1c[nH]cn1)C(=O)N[C@@H](CC(N)=O)C(=O)N[C@@H](Cc1c[nH]cn1)C(=O)N2 [plectasin]
- ATP leakage (intracellular ATP concentration) [1]: remained at the same level as the controls
- Growth in the presence of plectasin [2]: inhibited the growth
- Growth in the presence of plectasin [3]: hardly affected the growth
- Growth in the presence of plectasin [4]: hardly affected the growth
- Growth in the presence of plectasin [5]: inhibited the growth to a level comparable to wild type
- Expression of hrtB and hssR [6]: no change of expression
- Increased resistance of hssR mutants compared to the wild type [7]: 2 to 4 fold and 2-4 fold
- Spontaneous mutations leading to changes in sensitivity [8]: no spontaneous mutations
